From patent US9435792B2, “Hemolysis reagent composition for hemoglobin A1C quantitative analysis using enzymatic method” (I-Sens, Inc., priority 2012, dated 2016) come the findings set out here.

A short description of this data set: Evaluation of solubility of surfactant. In kind it is physicochemical. Conditions: surfactant dissolved in distilled water to a concentration of 0.75 mg/mL. The procedure: In order to use a surfactant, it is essential that the solubility of a sample itself be excellent. First of all, if the sample is not dissolved it cannot be used at all, and thus the solubility of a surfactant was evaluated as a prerequisite.

In the case of `CCCCCCCCCCCCCC(=O)NCCC[N+](C)(C)CCCS(=O)(=O)[O-]` [Comp. Ex. 1], the Solubility entry is given as “∘ (dissolved at a concentration of 0.75 mg/mL)”.
